We go through three compounds from PMC2901175 (ACS medicinal chemistry letters, 2010).

SMILES strings stand for the structures. In brackets after ≈: the same amount, converted by molar mass.

One assay has as its system IMP-1. The conditions noted are these: cited from earlier work.
Assay [1] concerns VIM-2 expressing bacteria. The conditions noted are these: cited from earlier work.
The next assay concerns the target VIM-2. The settings on record: against VIM-2; cited from earlier work.
In the next assay the test system is BL21/VIM-2 E. coli. As to the kind of experiment: Imipenem MIC potentiation in VIM-2 transformed E. coli. The class given is cell-based.
The test system of another assay is parental (BL21) E. coli. Briefly: Imipenem MIC in parental E. coli. The class given is cell-based. The settings on record: Escherichia coli, read-out: imipenem MIC.

On to `C#CCCOCc1nn[nH]c1CNS(=O)(=O)c1ccc(I)cc1` [Compound 1, N-((4-((but-3-ynyloxy)methyl)-1H-1,2,3-triazol-5-yl)methyl)-4-iodo-benzenesulfonamide], for which, in the assay on IMP-1, the “activity towards IMP-1 (in words)” value is “inactive”. Moreover, the “potentiation of ß-lactam antibacterial effects (in words)” value in assay [1] is reported as “did not potentiate”. Also, the Ki at VIM-2 is 410 ± 30 nM.
`C[C@@H](O)[C@H]1C(=O)N2C(C(=O)O)=C(SCCN=CN)C[C@H]12` [imipenem]: in the assay with BL21/VIM-2 E. coli, the “fold increase of imipenem MIC, BL21/VIM-2 relative to parental BL21” value is “approximately 9 fold”. Also, the MIC in the assay with BL21/VIM-2 E. coli (Escherichia coli, read-out: imipenem MIC) was 1.85 µg/mL; with parental (BL21) E. coli, 0.21 µg/mL (≈ 0.702 µM).
For `O=C(O)c1cc[c]([Hg][Cl])cc1` [pCMB, p-chloromercuribenzoic acid], the “potentiation of ß-lactam antibacterial effects (in words)” value in assay [1] was “synergistic effect”.
